Four compounds from ChEMBL document CHEMBL5338813 (J Med Chem, 2023) can be followed below.

The source made the active and inactive calls. The rule behind the calls is not given here.

In series [1] the test system is HCT-8. Briefly: Cytotoxicity against human HCT-8 cells assessed as reduction in cell number upto 50 uM incubated for 48 hrs by. It is filed as toxicity, cell-based. Particulars: hct-8, 48 h.
In series [2] the target is T1, hERG (KCNH2) (Homo sapiens, UniProt Q12809). In words: (§1) Displacement of [3H]Dofetilide from human ERG at 30 uM by automated patch clamp assay relative to control. To be noted: probe [3H]Dofetilide, read-out: Activity. Background: Loss of bound radioactivity is the signal in a displacement assay; it reports binding, not function.
T1 sequence (Q12809 whole entry): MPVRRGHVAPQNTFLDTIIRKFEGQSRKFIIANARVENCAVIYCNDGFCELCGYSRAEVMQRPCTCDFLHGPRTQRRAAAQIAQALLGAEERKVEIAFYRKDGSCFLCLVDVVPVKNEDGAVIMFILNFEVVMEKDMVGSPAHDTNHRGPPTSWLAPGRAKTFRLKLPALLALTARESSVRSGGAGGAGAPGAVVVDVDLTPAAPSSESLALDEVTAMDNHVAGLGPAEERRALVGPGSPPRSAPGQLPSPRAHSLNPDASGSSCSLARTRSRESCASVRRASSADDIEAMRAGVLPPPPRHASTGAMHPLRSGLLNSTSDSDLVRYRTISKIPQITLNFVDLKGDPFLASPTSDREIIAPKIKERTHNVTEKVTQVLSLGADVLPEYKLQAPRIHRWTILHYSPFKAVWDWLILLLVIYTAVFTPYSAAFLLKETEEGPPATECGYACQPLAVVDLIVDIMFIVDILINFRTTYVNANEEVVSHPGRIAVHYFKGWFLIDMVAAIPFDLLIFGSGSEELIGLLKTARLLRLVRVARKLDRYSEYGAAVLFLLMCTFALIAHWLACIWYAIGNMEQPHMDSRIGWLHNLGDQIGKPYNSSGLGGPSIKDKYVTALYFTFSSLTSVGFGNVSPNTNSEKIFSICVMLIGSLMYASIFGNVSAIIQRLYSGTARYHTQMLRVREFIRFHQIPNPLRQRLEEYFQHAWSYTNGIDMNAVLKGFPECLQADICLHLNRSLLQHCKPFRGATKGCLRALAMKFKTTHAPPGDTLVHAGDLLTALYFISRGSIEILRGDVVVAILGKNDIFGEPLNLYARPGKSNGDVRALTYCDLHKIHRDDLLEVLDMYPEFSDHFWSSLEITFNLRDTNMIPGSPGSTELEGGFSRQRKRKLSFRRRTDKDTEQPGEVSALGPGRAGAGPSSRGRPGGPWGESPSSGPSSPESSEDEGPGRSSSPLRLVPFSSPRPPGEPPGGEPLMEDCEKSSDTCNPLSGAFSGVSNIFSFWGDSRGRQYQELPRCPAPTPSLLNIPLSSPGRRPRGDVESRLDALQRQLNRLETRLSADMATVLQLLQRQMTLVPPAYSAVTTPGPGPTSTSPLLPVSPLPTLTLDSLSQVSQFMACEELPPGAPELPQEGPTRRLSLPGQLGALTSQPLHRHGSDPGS
Series [3] concerns Cryptosporidium parvum. Briefly: Antiparasitic activity against Cryptosporidium parvum infected in human HCT-8 cells assessed as parasitic growth inhibition incubated for 48 hrs by fluorescence microscopic analysis. It is filed as functional, organism-based. To be noted: HCT-8, 48 h.
In series [4] the target is T1, hERG (KCNH2). In words: Inhibition of human ERG expressed in CHO cells at 1 uM by automated patch clamp assay relative to control. The series is classed as cell-based. To be noted: CHO cells that express hERG. Background: The patch-clamp technique gives a direct electrical read-out from membranes.
The nature of series [5]: Metabolic stability in mouse intestinal S9 fraction assessed as half life measured upto 60 mins. The series is classed as ADME, subcellular, Intestine. To be noted: s9, 1 h.
Series [6] has as its target T1, hERG (KCNH2). Briefly: Inhibition of human ERG expressed in CHO cells at 10 uM by automated patch clamp assay relative to control. It is filed as cell-based. To be noted: CHO cells that express hERG.
Series [7] can be described thus: Metabolic stability in mouse intestinal S9 fraction assessed as intrinsic clearance measured upto 60 mins. The series is classed as ADME, subcellular, Intestine. To be noted: read-out: CLH.
Series [8] in a line: Metabolic stability in mouse liver microsomes assessed as intrinsic clearance measured upto 60 mins. The series is classed as ADME, Microsome. To be noted: read-out: CLH. (Liver microsomes are a subcellular fraction often used to study metabolism.)
Series [9] can be described thus: Cmax in mouse plasma at 5 mg/kg, po measured upto 24 hrs by LC-MS/MS analysis. The series is classed as ADME, organism-based. Further details: time < 24 hrs, dose 5 mg/kg, route po. To be noted: in vivo.
The target in series [10] is Voltage-gated inwardly rectifying potassium channel KCNH2 (Homo sapiens, UniProt Q12809). The description is as §1. To be noted: 30 µM.
Chain of Voltage-gated inwardly rectifying potassium channel KCNH2 (Q12809 whole entry): as above
Series [11] is described as follows: Plasma protein binding in mouse at 1 uM incubated for 30 mins by LC-MS/MS analysis. The series is classed as ADME, cell-free. To be noted: 0.5 h.
Series [12] relates to Cryptosporidium parvum. Briefly: Antiparasitic activity against Cryptosporidium parvum infected in mouse assessed as reduction in parasitic growth at >= 5 mg/kg, po pre-infected with parasite for 7 days followed by compound addition twice daily for 4 days. It is filed as functional. Also on record: scale not given: the % may be the effect or the level left. To be noted: time 4 day.

Series [13] can be described thus: AUC in mouse plasma at 5 mg/kg, po measured upto 24 hrs by LC-MS/MS analysis. It is filed as ADME, organism-based. Also on record: dose 5 mg/kg, time < 24 hrs, route po. To be noted: in vivo.
Series [14] relates to Cryptosporidium parvum. Briefly: Antiparasitic activity against Cryptosporidium parvum infected in mouse assessed as relapse in parasite growth at 5 mg/kg, po pre-infected with parasite for 7 days followed by compound addition twice daily for 4 days. The series is classed as functional, organism-based. Particulars: time 4.0 day.
Series [15] in a line: AUC in mouse Jejunum at 5 mg/kg, po measured upto 24 hrs by LC-MS/MS analysis. The series is classed as ADME, organism-based. Also on record: dose 5 mg/kg, time < 24 hrs, route po. To be noted: in vivo.
Series [16] is described as follows: Tmax in mouse Jejunum at 5 mg/kg, po measured upto 24 hrs by LC-MS/MS analysis. The series is classed as ADME, organism-based. To be noted: in vivo.
Series [17] can be described thus: Cmax in mouse Jejunum at 5 mg/kg, po measured upto 24 hrs by LC-MS/MS analysis. Particulars: in vivo. Also on record: dose 5 mg/kg, time < 24 hrs, route po. It is filed as ADME, organism-based.
For series [18], the target named is T1, hERG (KCNH2). In words: Inhibition of human ERG expressed in CHO cells at 30 uM by automated patch clamp assay relative to control. The series is classed as cell-based. Particulars: CHO cells that express hERG.
In series [19] the test system is Cryptosporidium parvum. In words: Antiparasitic activity against Cryptosporidium parvum infected in mouse assessed as relapse in parasite growth at >=5 mg/kg, po pre-infected with parasite for 7 days followed by compound addition twice daily for 4 days. The series is classed as functional, organism-based. To be noted: time 4.0 day.
Series [20] in a line: Metabolic stability in mouse liver microsomes assessed as half life measured upto 60 mins. To be noted: 1 h. It is filed as ADME, Microsome.
The nature of series [21]: Tmax in mouse plasma at 5 mg/kg, po measured upto 24 hrs by LC-MS/MS analysis. It is filed as ADME, organism-based. To be noted: in vivo.
A short description of series [22]: Plasma protein binding in human at 1 uM incubated for 30 mins by LC-MS/MS analysis. It is filed as ADME, cell-free. Particulars: 0.5 h.

For orientation: EC50 means the concentration that produces a half-maximal response. For `O=C(Cc1ccc(F)c(CF)c1)N1CCN(c2ccc3nncn3n2)CC1`, in series [1], the Activity result is given as “Non-Toxic”. In addition, the inhibition at 30 µM in series [2] stood at 38%. Besides, the EC50 in series [3] is 760 nM.

By Cmax is commonly meant the maximum level reached in the sampled fluid or tissue. As usually defined, the Tmax is the time from dosing to the highest level. As for `O=C(Cc1ccc(F)c(C(F)(F)F)c1)N1CCN(c2ccc3nncn3n2)CC1`, the inhibition at 1 µM in [4] amounted to 15%. The t1/2 in series [5] and in series [20] was above 120 min in each case. In series [6], this compound yielded an inhibition at 10 µM of 58%. Moreover, the microsomal CLint in series [7] was below 5.8 µL/min/mg; in series [8], below 57.8 µL/min/mg. For the same compound, the Activity entry in series [1] is “Non-Toxic”; in [10] it was 43%; in series [12], above 99%. The Cmax was determined as 568 ng/mL in [9] and 299 ng/g in series [17]. The compound further displayed a PPB in [11] of 51.8%. For the same compound, the values for the AUC in series [13] and in [15] were 3300 ng·h/mL and 2998 ng·h/g, respectively. In addition, the outcome in series [14] was inactive. In addition, the Tmax in [16] was 2 h; in [21], 1 h. Moreover, in [18], the inhibition at 30 µM was 84%. For the same compound, the EC50 in [3] turned out to be 70 nM. The result in [19] was Active.

On to `O=C(Cc1ccc(F)c(C(F)F)c1)N1CCN(c2ccc3nncn3n2)CC1`, for which the Activity entry in series [1] is given as “Non-Toxic”. Moreover, in series [2], the inhibition at 30 µM is 23%. Moreover, in [3], the EC50 was 470 nM.

`O=C(Cc1ccc(Cl)c(Cl)c1)N1CCN(c2ccc3nncn3n2)CC1`: the t1/2 in [5] was above 120 min; in series [20] it was 83 min. Also, the microsomal CLint in [7] was below 5.8 µL/min/mg; in series [8], 85.2 µL/min/mg. In addition, the results for the Cmax in series [9] and in series [17] were 532 ng/mL and 317 ng/g, respectively. Moreover, the PPB was found to be 98.2% in series [22] and 92.7% in [11]. The compound also gave an Activity in series [10] of 46%. The AUC in series [13] is 3387 ng·h/mL; in series [15], 3013 ng·h/g. For the same compound, the Tmax in series [16] and in series [21] was 1 h in each case.
